In patent US8202885B2, “Bridged six-membered ring compounds” (Actelion Pharmaceuticals Ltd., priority 2007, dated 2012) one finds IC50 and EC50 data, which are given here for 1 compound.

Some results are limits rather than exact numbers.

The target of test [1] is T1, human Cav1.2 channel (Homo sapiens, UniProt Q13936).
T1 construct: expressed in transfected cells; host or cells: HEK293
Put plainly: In vitro assay L channel (FLIPR calcium fluorescence). The class given is cell-based. The note with it: HEK293 cells expressing human Cav1.2 with β-2a and α2δ-1; 20 mM KCl-induced fluo-4 fluorescence; determined up to 10 μM; read-out: L channel antagonistic activity (IC50). Here is the method:
The L channel antagonistic activity (IC50 values) of the compounds of formula (I) is determined in accordance with the following experimental method.
Human embryonic kidney (HEK293) cells expressing the human Cav1.2 channel in addition to the auxiliary subunits β-2a and α2δ-1, are grown in culture medium (DMEM containing 10% heat-inactivated fetal calf serum (FCS), 100 U/ml penicillin, 100 μg/ml streptomycin, 100 μg/ml G418, 40 μg/ml zeocin and 100 μg/ml hygromycin). The cells are seeded at 20.000 cells/well into 384-well black clear bottom sterile plates (poly-L-lysine-coated, Becton Dickinson). The seeded plates are incubated overnight at 37° C. in 5% CO2. The KCl solution is prepared as 80 mM stock solution in assay buffer (HBSS containing 0.1% BSA, 20 mM HEPES, 0.375 g/l NaHCO3, adjusted to pH 7.4 with NaOH) for use in the assay at a final concentration of 20 mM. Antagonists are prepared as 10 mM stock solutions in DMSO, then diluted in 384 w plates first in DMSO, then in assay buffer to obtain 3× stocks. On the day of the assay, 25 μl of staining buffer (HBSS containing 20 mM HEPES, 0.375 g/l NaHCO3, and 3 μM of the fluorescent calcium indicator fluo-4 AM (1 mM stock solution in DMSO, containing 10% pluronic) is added to each well of the seeded plate. The 384-well cell-plates are incubated for 60 min at 37° C. in 5% CO2 followed by washing with 2×50 μl per well using assay buffer leaving 50 μl/well of this buffer for equilibration at room temperature (30-60 min). Within the Fluorescent Imaging Plate Reader (FLIPR, Molecular Devices), antagonists are added to the plate in a volume of 25 μl/well, incubated for 3 min and finally 25 μl/well of KCl solution is added for cellular depolarization. Fluorescence is measured for each well at 2 second intervals for 8 minutes, and the area under the curve of each fluorescence peak is compared to the area of the fluorescence peak induced by 20 mM KCl with vehicle in place of antagonist. […]

In test [2] the test system is human Cav3.1 Cav3.2 or Cav3.3 channel. Put plainly: In vitro assay T channel (FLIPR calcium fluorescence). The class given is cell-based. To be noted: HEK293 cells expressing human Cav3.1, Cav3.2 or Cav3.3; 10 mM Ca2+-induced fluo-4 fluorescence; determined up to 10 μM; read-out: T channel antagonistic activity IC50. In short, it runs like this: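 IC50 (nM) is the antagonist concentration halving the area under the fluorescence peak evoked by 10 mM Ca2+, relative to vehicle, with testing up to 10 μM. Fluo-4-loaded HEK293 cells expressing each human Cav3 subtype received compound 3 min before Ca2+ addition (TEA-based buffer, pH 7.2); signal monitored 8 min at 2 s intervals.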

Test [3] deals with isolated mouse hearts. Put plainly: Effect on isolated hearts according to the Langendorff method (Lgdff). On the procedure: Effect on Isolated Hearts According to the Langendorff Method (Lgdff)
The compounds were tested for their potential to reduce blood pressure and their effect on the contractility of the heart muscle. EC50 values on isolated mouse hearts were determined according to Literature (Doring H J., The isolated perfused heart according to Langendorff technique—function—application, Physiol. Bohemoslov. 1990, 39(6), 481-504; Kligfield P, Horner H, Brachfeld N., A model of graded ischemia in the isolated perfused rat heart, J. Appl. Physiol. 1976 June, 40(6), 1004-8).
51 example compounds have been measured using the procedure described above for the Langendorff experiment. The measured EC50 values were in the range of 4 to 669 nM with an average of 37 nM.

T1 sequence (Q13936 whole entry): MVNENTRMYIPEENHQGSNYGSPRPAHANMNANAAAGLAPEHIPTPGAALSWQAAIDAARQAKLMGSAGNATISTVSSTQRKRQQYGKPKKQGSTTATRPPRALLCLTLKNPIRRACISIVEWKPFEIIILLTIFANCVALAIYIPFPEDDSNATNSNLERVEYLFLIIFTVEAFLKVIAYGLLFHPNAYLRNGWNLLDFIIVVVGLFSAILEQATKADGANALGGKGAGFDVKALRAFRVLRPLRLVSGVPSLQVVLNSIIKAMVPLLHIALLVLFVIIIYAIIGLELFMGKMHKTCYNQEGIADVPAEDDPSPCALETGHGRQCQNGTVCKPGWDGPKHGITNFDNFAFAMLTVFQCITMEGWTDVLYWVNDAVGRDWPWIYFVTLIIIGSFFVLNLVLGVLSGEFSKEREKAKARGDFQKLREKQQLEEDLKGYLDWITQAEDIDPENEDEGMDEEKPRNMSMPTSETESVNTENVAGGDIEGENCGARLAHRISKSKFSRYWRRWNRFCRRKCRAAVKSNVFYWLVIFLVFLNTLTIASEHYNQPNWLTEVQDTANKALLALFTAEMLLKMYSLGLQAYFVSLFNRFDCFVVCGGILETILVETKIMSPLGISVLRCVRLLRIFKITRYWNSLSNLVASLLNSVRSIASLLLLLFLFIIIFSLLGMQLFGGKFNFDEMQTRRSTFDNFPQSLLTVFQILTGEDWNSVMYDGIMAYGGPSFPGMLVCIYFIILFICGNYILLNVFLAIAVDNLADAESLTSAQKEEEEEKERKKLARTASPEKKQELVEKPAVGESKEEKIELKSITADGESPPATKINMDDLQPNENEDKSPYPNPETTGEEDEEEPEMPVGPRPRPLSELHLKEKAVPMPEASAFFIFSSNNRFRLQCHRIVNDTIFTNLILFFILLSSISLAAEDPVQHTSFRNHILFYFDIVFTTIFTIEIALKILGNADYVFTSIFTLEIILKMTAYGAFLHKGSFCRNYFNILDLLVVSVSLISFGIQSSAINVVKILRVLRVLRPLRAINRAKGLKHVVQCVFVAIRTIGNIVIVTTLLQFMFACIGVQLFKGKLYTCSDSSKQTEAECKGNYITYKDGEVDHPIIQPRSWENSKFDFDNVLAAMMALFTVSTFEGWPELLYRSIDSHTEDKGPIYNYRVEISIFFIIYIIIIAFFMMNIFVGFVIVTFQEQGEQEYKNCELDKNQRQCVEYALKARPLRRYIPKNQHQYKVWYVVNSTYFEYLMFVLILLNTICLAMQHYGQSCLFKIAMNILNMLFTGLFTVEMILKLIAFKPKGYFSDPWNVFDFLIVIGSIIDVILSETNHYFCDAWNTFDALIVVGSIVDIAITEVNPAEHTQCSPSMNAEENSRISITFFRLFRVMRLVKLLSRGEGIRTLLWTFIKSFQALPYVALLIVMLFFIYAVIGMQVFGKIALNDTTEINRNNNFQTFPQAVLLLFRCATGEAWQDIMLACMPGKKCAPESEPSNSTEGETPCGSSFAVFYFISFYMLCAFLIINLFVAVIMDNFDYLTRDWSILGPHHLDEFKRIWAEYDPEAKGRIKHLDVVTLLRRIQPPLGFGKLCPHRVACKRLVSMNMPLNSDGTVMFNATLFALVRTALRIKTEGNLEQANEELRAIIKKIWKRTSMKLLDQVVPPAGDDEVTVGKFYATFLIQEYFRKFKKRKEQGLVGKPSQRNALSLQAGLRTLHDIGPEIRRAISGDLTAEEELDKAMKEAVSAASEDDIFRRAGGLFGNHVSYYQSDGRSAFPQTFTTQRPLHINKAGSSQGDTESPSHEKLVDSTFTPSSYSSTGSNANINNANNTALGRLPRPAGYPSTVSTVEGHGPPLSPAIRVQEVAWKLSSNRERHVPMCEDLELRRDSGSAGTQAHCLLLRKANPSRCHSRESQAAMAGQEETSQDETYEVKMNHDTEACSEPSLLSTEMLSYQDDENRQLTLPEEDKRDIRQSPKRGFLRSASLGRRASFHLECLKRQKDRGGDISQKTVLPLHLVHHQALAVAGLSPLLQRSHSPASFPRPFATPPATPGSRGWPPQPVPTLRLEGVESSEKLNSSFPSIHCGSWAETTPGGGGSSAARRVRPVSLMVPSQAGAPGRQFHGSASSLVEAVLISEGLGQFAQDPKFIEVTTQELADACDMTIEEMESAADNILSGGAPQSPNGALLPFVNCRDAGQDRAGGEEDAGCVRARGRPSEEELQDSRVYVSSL

For `CC(C)C(=O)O[C@@]1(CCN(C)CCCc2nc3ccccc3[nH]2)C[C@H]2CC[C@@H]1C=C2c1ccc2ccccc2c1` (racemic) [Example 10A, rac-Isobutyric acid (1R*,2R*,4R*)-2-(2-{[3-(1H-benzoimidazol-2-yl)-propyl]-methyl-amino}-ethyl)-5-naphthalen-2-yl-bicyclo[2.2.2]oct-5-en-2-yl ester], the IC50 in test [1] and in test [2] was greater than 10 µM throughout. The compound also showed an EC50 in test [3] of 0.013 µM.
